Source: article PMC10584170, “Machine learning-based phenotypic imaging to characterise the targetable biology of Plasmodium falciparum male gametocytes for the development of transmission-blocking antimalarials” (PLOS Pathogens, 2023)

Tests used:
[1] = tested on: P. falciparum male gametocytes; experiment: P. falciparum Dual Gamete Formation Assay (PfDGFA), male readout (exflagellation); assay type: cell-based, Plasmodium falciparum NF54; details: for Average inhibition male (%): average of replicates; for % inhibition male (individual replicates) R1: replicate R1; for % inhibition male (individual replicates) R3: replicate R3; for % inhibition male (individual replicates) R4: replicate R4; for Activity: hit = >50% inhibition in male or female readout in at least 3 replicates, 0 = no class assigned
Outline: (§1)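 NF54 mature gametocytes (d14), cpd 24 h 37°C hypoxic gas; trigger: xanthurenic acid ookinete medium + Cy3 anti-Pfs25, 4°C 4 min → 28°C 4 min. Male: exflagellation centres, brightfield x6. Female: Pfs25+ gametes, fluorescence, +24 h 28°C dark.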

[2] = tested on: P. falciparum female gametocytes; experiment: P. falciparum Dual Gamete Formation Assay (PfDGFA), female readout (Pfs25-positive female gametes); assay type: cell-based, Plasmodium falciparum NF54; details: for Average inhibition female (%): average of replicates; for % inhibition female (individual replicates) R1: replicate R1; for % inhibition female (individual replicates) R3: replicate R3; for % inhibition female (individual replicates) R4: replicate R4
Outline: as §1

[3] = 2µM, 24h preincubation with gametocytes prior to induction of gametogenesis
[4] = 2µM, 24h preincubation, number of replicates with >50% inhibition in the male readout
[5] = 2µM, 24h preincubation, number of replicates with >50% inhibition in the female readout
[6] = PfDGFA at 2µM, 24h preincubation with gametocytes prior to induction of gametogenesis
[7] = PfDGFA at 2µM, 24h preincubation
[8] = 2µM, 24h preincubation, hits selected on >50% inhibition in the male readout across replicates
[9] = 2µM, 24h preincubation, hits selected on >50% inhibition in the female readout across replicates
[10] = PfDGFA at 2µM, 24h preincubation with gametocytes
[11] = 2µM, 24h preincubation with gametocytes

CC(C)CC(=O)N(Cc1ccc(-c2ccc(CNC3Cc4ccccc4C3)cc2)cc1)C1CCNCC1.O=C(O)C(F)(F)F [TCMDC-141449]
Average inhibition male (%) [1, 3]: 48.3% | % inhibition male (individual replicates) R1 [1, 3]: 49.9% | % inhibition male (individual replicates) R3 [1, 3]: 28.4% | % inhibition male (individual replicates) R4 [1, 3]: 64.9% | HitlevelM [1, 4]: 2 | Average inhibition female (%) [2, 3]: 21.5% | % inhibition female (individual replicates) R1 [2, 3]: 24.4% | % inhibition female (individual replicates) R3 [2, 3]: 9.8% | % inhibition female (individual replicates) R4 [2, 3]: 34.2% | HitlevelF [2, 5]: 0

O=C(COc1ccccc1)N(Cc1ccc(-c2ccc(CNC3Cc4ccccc4C3)cc2)cc1)C1CCNCC1.O=C(O)C(F)(F)F [TCMDC-141450]
% inhibition male (individual replicates) R1 [1, 6]: 15.3% | % inhibition male (individual replicates) R3 [1, 6]: -5.5% | % inhibition male (individual replicates) R4 [1, 6]: 33.6% | Average inhibition male (%) [1, 7]: 16.7% | % inhibition female (individual replicates) R1 [2, 6]: 8.2% | % inhibition female (individual replicates) R3 [2, 6]: -25.4% | % inhibition female (individual replicates) R4 [2, 6]: -2.6% | Average inhibition female (%) [2, 7]: -0.0825%

CN(C)CCCNCc1ccc(-c2ccc(CNCCOc3ccccc3)cc2)cc1.O=C(O)C(F)(F)F [TCMDC-141457]
% inhibition male (individual replicates) R1 [1, 6]: 5.2% | % inhibition male (individual replicates) R3 [1, 6]: 1.0% | % inhibition male (individual replicates) R4 [1, 6]: 30.2% | Average inhibition male (%) [1, 7]: 9.2% | % inhibition female (individual replicates) R1 [2, 6]: 3.5% | % inhibition female (individual replicates) R3 [2, 6]: -18.9% | % inhibition female (individual replicates) R4 [2, 6]: -9.2% | Average inhibition female (%) [2, 7]: -4.9%

COc1cccc(CCN(Cc2ccccc2-c2ccc(CNC3CC(C)(C)NC(C)(C)C3)cc2)C(=O)NC2CCCCC2)c1.Cl [TCMDC-141577]
Average inhibition male (%) [1, 3]: 1.5% | % inhibition male (individual replicates) R1 [1, 3]: 8.1% | % inhibition male (individual replicates) R3 [1, 3]: -2.0% | % inhibition male (individual replicates) R4 [1, 3]: 2.2% | HitlevelM [1, 8]: 0 | Activity [1, 7]: 0 | Average inhibition female (%) [2, 3]: 13.0% | % inhibition female (individual replicates) R1 [2, 3]: 16.8% | % inhibition female (individual replicates) R3 [2, 3]: -15.5% | % inhibition female (individual replicates) R4 [2, 3]: 31.4% | HitlevelF [2, 9]: 0

CN(C)CCCNc1nccc(N(C)c2ccc(NC(=O)Nc3cc(C(F)(F)F)ccc3F)cc2)n1.O=C(O)C(F)(F)F [TCMDC-141633]
Average inhibition male (%) [1, 3]: 62.2% | % inhibition male (individual replicates) R1 [1, 3]: 40.8% | % inhibition male (individual replicates) R4 [1, 3]: 63.9% | HitlevelM [1, 8]: 2 | Activity [1, 7]: 0 | Average inhibition female (%) [2, 3]: 13.3% | % inhibition female (individual replicates) R1 [2, 3]: 14.0% | % inhibition female (individual replicates) R3 [2, 3]: 9.3% | % inhibition female (individual replicates) R4 [2, 3]: 15.1% | HitlevelF [2, 9]: 0

O=C(O)C(F)(F)F.c1ccc(CCNCc2ccc(-c3ccc(CNC4CCN(Cc5ccccc5)CC4)cc3)nc2)cc1 [TCMDC-141649]
Average inhibition male (%) [1, 3]: 11.3% | % inhibition male (individual replicates) R1 [1, 3]: 9.5% | % inhibition male (individual replicates) R3 [1, 3]: -1.4% | % inhibition male (individual replicates) R4 [1, 3]: 30.2% | HitlevelM [1, 8]: 0 | Activity [1, 7]: 0 | Average inhibition female (%) [2, 3]: 11.9% | % inhibition female (individual replicates) R1 [2, 3]: 20.3% | % inhibition female (individual replicates) R3 [2, 3]: -13.0% | % inhibition female (individual replicates) R4 [2, 3]: 18.4% | HitlevelF [2, 9]: 0

CCCCCCN1CCC(NCc2ccc(OCCN3CCCC3)cc2)CC1.O=C(O)C(F)(F)F [TCMDC-141663]
Average inhibition male (%) [1, 3]: 7.0% | % inhibition male (individual replicates) R1 [1, 3]: 26.8% | % inhibition male (individual replicates) R3 [1, 3]: -12.7% | % inhibition male (individual replicates) R4 [1, 3]: -11.8% | HitlevelM [1, 8]: 0 | Activity [1, 7]: 0 | Average inhibition female (%) [2, 3]: 15.8% | % inhibition female (individual replicates) R1 [2, 3]: 20.0% | % inhibition female (individual replicates) R3 [2, 3]: 13.5% | % inhibition female (individual replicates) R4 [2, 3]: 15.0% | HitlevelF [2, 9]: 0

CN1CCc2cc(NS(=O)(=O)c3ccc(-c4ccc(Cl)cc4)cc3)c(OCCCN3CCCCC3)cc2CC1.Cl [TCMDC-141754]
Average inhibition male (%) [1, 10]: 76.4% | % inhibition male (individual replicates) R1 [1, 10]: 81.6% | % inhibition male (individual replicates) R3 [1, 10]: 46.2% | % inhibition male (individual replicates) R4 [1, 10]: 86.2% | HitlevelM ([1]; number of replicates with >50% inhibition in the male readout, 2µM): 3 | Average inhibition female (%) [2, 10]: 21.5% | % inhibition female (individual replicates) R1 [2, 10]: 25.0% | % inhibition female (individual replicates) R3 [2, 10]: 13.0% | % inhibition female (individual replicates) R4 [2, 10]: 19.2% | HitlevelF ([2]; number of replicates with >50% inhibition in the female readout, 2µM): 0

Cl.Clc1ccc(C2CCN(CCCOc3ccc4c(c3)CCNCC4)CC2)cc1 [TCMDC-141782]
Average inhibition male (%) [1, 3]: 47.0% | % inhibition male (individual replicates) R1 [1, 3]: 45.1% | % inhibition male (individual replicates) R3 [1, 3]: 27.8% | % inhibition male (individual replicates) R4 [1, 3]: 64.2% | HitlevelM [1, 4]: 2 | Average inhibition female (%) [2, 3]: 28.4% | % inhibition female (individual replicates) R1 [2, 3]: 14.5% | % inhibition female (individual replicates) R3 [2, 3]: 2.3% | % inhibition female (individual replicates) R4 [2, 3]: 70.0% | HitlevelF [2, 5]: 1

Cc1cc(F)ccc1-c1nc(NCCCNCCc2ccccc2)nc2c1ccc(=O)n2-c1c(F)cccc1F.O=C(O)C(F)(F)F [TCMDC-141804]
Average inhibition male (%) [1, 3]: 11.7% | % inhibition male (individual replicates) R1 [1, 3]: 17.7% | % inhibition male (individual replicates) R3 [1, 3]: -28.8% | % inhibition male (individual replicates) R4 [1, 3]: 37.6% | HitlevelM [1, 4]: 0 | Average inhibition female (%) [2, 3]: 33.0% | % inhibition female (individual replicates) R1 [2, 3]: 27.9% | % inhibition female (individual replicates) R3 [2, 3]: 6.6% | % inhibition female (individual replicates) R4 [2, 3]: 62.0% | HitlevelF [2, 5]: 1

Cc1c(Cn2ncc(N3CCC(N)CC3)c(Cl)c2=O)cccc1NC(=O)Nc1ccc(-c2ccccc2)cc1.O=C(O)C(F)(F)F [TCMDC-141931]
Average inhibition male (%) [1, 3]: 36.5% | % inhibition male (individual replicates) R1 [1, 3]: 42.7% | % inhibition male (individual replicates) R3 [1, 3]: 3.4% | % inhibition male (individual replicates) R4 [1, 3]: 40.2% | HitlevelM [1, 4]: 1 | Average inhibition female (%) [2, 3]: 48.9% | % inhibition female (individual replicates) R1 [2, 3]: 32.2% | % inhibition female (individual replicates) R3 [2, 3]: 19.7% | % inhibition female (individual replicates) R4 [2, 3]: 64.5% | HitlevelF [2, 5]: 2

Nc1nc(N)c2cc(CNc3ccc(Cl)c(Cl)c3)ccc2n1 [TCMDC-141974]
% inhibition male (individual replicates) R1 [1, 6]: 19.3% | % inhibition male (individual replicates) R3 [1, 6]: 26.8% | % inhibition male (individual replicates) R4 [1, 6]: 9.5% | Average inhibition male (%) [1, 7]: 20.3% | % inhibition female (individual replicates) R1 [2, 6]: 1.5% | % inhibition female (individual replicates) R3 [2, 6]: -5.9% | % inhibition female (individual replicates) R4 [2, 6]: 0.5% | Average inhibition female (%) [2, 7]: -1.4%

COc1ccc2c(c1)nc(CNC(=N)N)n2Cc1ccc(Cl)cc1.Cl [TCMDC-142042]
Average inhibition male (%) [1, 3]: -2.9% | % inhibition male (individual replicates) R1 [1, 3]: -15.5% | % inhibition male (individual replicates) R3 [1, 3]: -14.5% | % inhibition male (individual replicates) R4 [1, 3]: 30.2% | HitlevelM [1, 8]: 0 | Activity [1, 7]: 0 | Average inhibition female (%) [2, 3]: 8.7% | % inhibition female (individual replicates) R1 [2, 3]: 5.3% | % inhibition female (individual replicates) R3 [2, 3]: -8.2% | % inhibition female (individual replicates) R4 [2, 3]: 2.2% | HitlevelF [2, 9]: 0

Cc1ccc2nc(C)cc(N/N=C/c3ccc([N+](=O)[O-])cc3)c2c1 [TCMDC-142070]
% inhibition male (individual replicates) R1 [1, 6]: -12.6% | % inhibition male (individual replicates) R3 [1, 6]: -7.9% | % inhibition male (individual replicates) R4 [1, 6]: 12.9% | Average inhibition male (%) [1, 7]: -0.848% | % inhibition female (individual replicates) R1 [2, 6]: 9.6% | % inhibition female (individual replicates) R3 [2, 6]: -4.2% | % inhibition female (individual replicates) R4 [2, 6]: -9.4% | Average inhibition female (%) [2, 7]: 1.3%

CC1(C)N=C(N)N=C(N)N1c1ccc(Cl)c(Cl)c1.Cl [TCMDC-142180]
% inhibition male (individual replicates) R1 [1, 6]: 8.4% | % inhibition male (individual replicates) R4 [1, 6]: -27.5% | Average inhibition male (%) [1, 7]: 6.9% | % inhibition female (individual replicates) R1 [2, 6]: -5.5% | % inhibition female (individual replicates) R3 [2, 6]: -6.4% | % inhibition female (individual replicates) R4 [2, 6]: 1.4% | Average inhibition female (%) [2, 7]: -4.7%

CCOc1ccc2c(=NN=Cc3ccc(OC)c(OC)c3)cc(C)[nH]c2c1 [TCMDC-142206]
Average inhibition male (%) [1, 3]: 11.1% | % inhibition male (individual replicates) R1 [1, 3]: 9.5% | % inhibition male (individual replicates) R3 [1, 3]: 6.4% | % inhibition male (individual replicates) R4 [1, 3]: 28.2% | HitlevelM [1, 4]: 0 | Average inhibition female (%) [2, 3]: 22.4% | % inhibition female (individual replicates) R1 [2, 3]: 27.0% | % inhibition female (individual replicates) R3 [2, 3]: -3.4% | % inhibition female (individual replicates) R4 [2, 3]: 40.7% | HitlevelF [2, 5]: 0

Cl.Nc1c(I)cc(C(=O)Nc2ccc3nc4c(c(N)c3c2)CCCC4)cc1I [TCMDC-142289]
Average inhibition male (%) [1, 11]: 92.1% | % inhibition male (individual replicates) R1 [1, 11]: 89.6% | % inhibition male (individual replicates) R4 [1, 11]: 96.1% | Average inhibition female (%) [2, 11]: 49.6% | % inhibition female (individual replicates) R1 [2, 11]: 51.7% | % inhibition female (individual replicates) R3 [2, 11]: 34.7% | % inhibition female (individual replicates) R4 [2, 11]: 48.7%
